Data taken from patent US20230365592A1 (Agios Pharmaceuticals, Inc., priority 2022, published 2023).

Target: T1, human PAH with the R408W mutation (Homo sapiens, UniProt P00439, R408W)
T1 construct: expressed in transfected cells
T1 sequence (P00439 1-452 R408W): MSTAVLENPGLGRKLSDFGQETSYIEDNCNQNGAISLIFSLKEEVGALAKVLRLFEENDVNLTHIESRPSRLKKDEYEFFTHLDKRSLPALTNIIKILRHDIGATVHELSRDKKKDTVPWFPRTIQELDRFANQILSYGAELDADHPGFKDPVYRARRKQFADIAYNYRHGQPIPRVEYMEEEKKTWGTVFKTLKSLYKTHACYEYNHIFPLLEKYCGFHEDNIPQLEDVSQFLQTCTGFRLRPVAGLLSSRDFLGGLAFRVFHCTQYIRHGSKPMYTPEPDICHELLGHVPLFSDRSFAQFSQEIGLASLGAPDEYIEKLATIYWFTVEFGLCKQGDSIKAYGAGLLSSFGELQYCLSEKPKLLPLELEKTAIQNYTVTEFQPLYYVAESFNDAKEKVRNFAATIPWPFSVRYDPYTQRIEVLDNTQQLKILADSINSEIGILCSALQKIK
Experiment: Cell Based Phenylalanine Flux Assay;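 also: after compound treatment, cells received sepiapterin plus isotope-labelled Phenylalanine for 4 hours, then labelled Tyrosine in the medium was quantified, 10-point 2-fold dilution series run in duplicate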
Conditions: A375 cells expressing R408W PAH; 24 hrs with compound, then 20 µM sepiapterin and 800 µM 13C9,15N-Phenylalanine for 4 hours; 13C-Tyrosine by LC-MS; average where tested multiple times; read-out: AC50

Row | SMILES | AC50
1 | Cn1ccc(-c2nnc(C(=O)N3CCc4[nH]cnc4C3c3cc4cc(C(F)(F)F)ccn4n3)o2)n1 (stereo not shown) | > 5 µM
2 | Cc1c(C2c3nc[nH]c3CCN2C(=O)c2nnc(-c3cnn(C)c3C)o2)nn2ccccc12 (stereo not shown) | 1 to 5 µM
3 | Cc1cccc2cc(C3c4nc[nH]c4CCN3C(=O)c3nnc(C4CC(F)(F)C4)o3)nn12 (stereo not shown) [listing 1 of 2 here] | > 5 µM
4 | Cn1ccc(-c2nnc(C(=O)N3CCc4[nH]cnc4C3c3cc4c(OC(F)F)cccn4n3)o2)n1 (stereo not shown) [listing 1 of 2 here] | > 5 µM
5 | COc1cccn2nc(C3c4nc[nH]c4CCN3C(=O)c3nnc(C)o3)cc12 (stereo not shown) [listing 1 of 2 here] | > 5 µM
6 | O=C(c1nnc(C2CC(F)(F)C2)o1)N1CCc2[nH]cnc2C1c1cc2cccc(Cl)n2n1 (stereo not shown) [listing 1 of 2 here] | > 5 µM
7 | O=C(c1nnc(-c2cnn(C(F)(F)F)c2)o1)N1CCc2[nH]cnc2C1c1cc2cccc(F)n2n1 (stereo not shown) [listing 1 of 2 here] | > 5 µM
8 | Cc1nnc(C(=O)N2CCc3[nH]cnc3C2c2cc3cccc(F)n3n2)o1 (stereo not shown) [listing 1 of 2 here] | 1 to 5 µM
9 | O=C(c1nnc(-c2ncccn2)o1)N1CCc2[nH]cnc2C1c1cc2cccc(C(F)(F)F)n2n1 (stereo not shown) [listing 1 of 2 here] | > 5 µM
10 | Cc1cccc2cc(C3c4nc[nH]c4CCN3c3nnc(C4CC4)o3)nn12 (stereo not shown) [listing 1 of 2 here] | > 5 µM
11 | O=C(c1cnn2cc(N3CCOCC3)ccc12)N1CCc2[nH]cnc2C1c1cc2ccccn2n1 (stereo not shown) [listing 1 of 2 here] | > 5 µM
12 | O=C(c1cnco1)N1CCc2[nH]cnc2C1c1cc2cc(C(F)(F)F)ccn2n1 (stereo not shown) [listing 1 of 2 here] | > 5 µM
13 | O=C(c1cnco1)N1CCc2[nH]cnc2C1c1cc2cccc(C(F)(F)F)n2n1 (stereo not shown) [listing 1 of 2 here] | > 5 µM
14 | Cc1cccc2cc(C3c4nc[nH]c4CCN3C(=O)c3cnco3)nn12 (stereo not shown) [listing 1 of 2 here] | 1 to 5 µM
15 | Cc1nc(C(C)O)oc1C(=O)N1CCc2[nH]cnc2C1c1cc2cccc(Cl)n2n1 (stereo not shown) [listing 1 of 2 here] | > 5 µM
16 | O=C(CCc1nccs1)N1CCc2[nH]cnc2C1c1cc2ccccn2n1 (stereo not shown) | 1 to 5 µM
17 | Cn1nc(C(F)(F)F)nc1C(=O)N1CCc2[nH]cnc2C1c1cc2cccc(C(F)(F)F)n2n1 (stereo not shown) | 1 to 5 µM
18 | Cn1cc(-c2ccc3c(C(=O)N4CCc5[nH]cnc5C4c4cc5ccccn5n4)cnn3c2)cn1 (stereo not shown) | 1 to 5 µM
19 | Cn1cc(-c2nnc(N3CCc4[nH]cnc4C3c3cc4ccccn4n3)o2)cn1 (stereo not shown) | 1 to 5 µM
20 | Cc1c(C2c3nc[nH]c3CCN2C(=O)c2nnc(C(C)(C)F)o2)nn2ccccc12 (stereo not shown) | 1 to 5 µM
21 | O=C(c1nnc(C2CC(F)(F)C2)o1)N1CCc2[nH]cnc2C1c1cc2cccc(C(F)F)n2n1 (stereo not shown) | 1 to 5 µM
22 | O=C(c1nnc(C2CC(F)(F)C2)o1)N1CCc2[nH]cnc2C1c1cc2cccc(C(F)(F)F)n2n1 (stereo not shown) | 1 to 5 µM
23 | Cc1cccc2cc(C3c4nc[nH]c4CCN3C(=O)c3nnc(C4CC(F)(F)C4)o3)nn12 (stereo not shown) [listing 2 of 2 here] | 1 to 5 µM
24 | Cn1ccc(-c2nnc(C(=O)N3CCc4[nH]cnc4C3c3cc4c(OC(F)F)cccn4n3)o2)n1 (stereo not shown) [listing 2 of 2 here] | 1 to 5 µM
25 | Cn1cnc(-c2nnc(C(=O)N3CCc4[nH]cnc4C3c3cc4c(C(F)F)cccn4n3)o2)c1 (stereo not shown) | 1 to 5 µM
26 | CC(C)c1nnc(C(=O)N2CCc3[nH]cnc3C2c2cc3c(C(F)F)cccn3n2)o1 (stereo not shown) | > 5 µM
27 | Cn1cncc1-c1nnc(C(=O)N2CCc3[nH]cnc3C2c2cc3c(C(F)F)cccn3n2)o1 (stereo not shown) | 1 to 5 µM

Row | SMILES | AC50
28 | Fc1cccn2nc(C3c4nc[nH]c4CCN3c3nc4ccccc4o3)cc12 (stereo not shown) | 1 to 5 µM
29 | COc1cccn2nc(C3c4nc[nH]c4CCN3C(=O)c3nnc(C)o3)cc12 (stereo not shown) [listing 2 of 2 here] | 1 to 5 µM
30 | Cn1cncc1-c1nnc(C(=O)N2CCc3[nH]cnc3C2c2cc3cccc(C(F)F)n3n2)o1 (stereo not shown) | 1 to 5 µM
31 | O=C(c1nnc(C2CC(F)(F)C2)o1)N1CCc2[nH]cnc2C1c1cc2cccc(Cl)n2n1 (stereo not shown) [listing 2 of 2 here] | 1 to 5 µM
32 | Clc1cccc2cc(C3c4nc[nH]c4CCN3c3nnc(C4CC4)o3)nn12 (stereo not shown) | 1 to 5 µM
33 | O=C(c1nnc(-c2cnn(C(F)(F)F)c2)o1)N1CCc2[nH]cnc2C1c1cc2cccc(F)n2n1 (stereo not shown) [listing 2 of 2 here] | 1 to 5 µM
34 | Cc1nnc(C(=O)N2CCc3[nH]cnc3C2c2cc3cccc(F)n3n2)o1 (stereo not shown) [listing 2 of 2 here] | 1 to 5 µM
35 | Cc1nc(C(C)(C)O)oc1C(=O)N1CCc2[nH]cnc2C1c1cc2cccc(C(F)(F)F)n2n1 (stereo not shown) | 1 to 5 µM
36 | Cc1nc(C(C)(C)O)oc1C(=O)N1CCc2[nH]cnc2C1c1cc2cccc(C)n2n1 (stereo not shown) | 1 to 5 µM
37 | CC(C)(O)c1nnc(C(=O)N2CCc3[nH]cnc3C2c2cc3c(C(F)F)cccn3n2)o1 (stereo not shown) | 1 to 5 µM
38 | FC(F)c1cccn2nc(C3c4[nH]cnc4CCN3c3nnc(-c4ccccn4)o3)cc12 (stereo not shown) | 1 to 5 µM
39 | CC(C)(O)c1nnc(C(=O)N2CCc3[nH]cnc3C2c2cc3cc(C(F)(F)F)ccn3n2)o1 (stereo not shown) | > 5 µM
40 | Cc1ccc2cc(C3c4nc[nH]c4CCN3C(=O)c3nnc(C(C)(C)O)o3)nn2c1 (stereo not shown) | 1 to 5 µM
41 | CC(C)(O)c1nnc(C(=O)N2CCc3[nH]cnc3C2c2cc3cccc(C(F)F)n3n2)o1 (stereo not shown) | 1 to 5 µM
42 | CC(C)(O)c1ncc(C(=O)N2CCc3[nH]cnc3C2c2cc3cccc(C(F)(F)F)n3n2)o1 (stereo not shown) | 1 to 5 µM
43 | O=C(c1nnc(-c2ncccn2)o1)N1CCc2[nH]cnc2C1c1cc2cccc(C(F)(F)F)n2n1 (stereo not shown) [listing 2 of 2 here] | 1 to 5 µM
44 | Fc1cccc2cc(C3c4nc[nH]c4CCN3c3nnc(-c4ccccn4)o3)nn12 (stereo not shown) | 1 to 5 µM
45 | O=C(c1nnc(-c2ncccn2)o1)N1CCc2[nH]cnc2C1c1cc2cccc(F)n2n1 (stereo not shown) | 1 to 5 µM
46 | O=C(c1nnc(-c2ncccn2)o1)N1CCc2[nH]cnc2C1c1cc2ccccn2n1 (stereo not shown) | 1 to 5 µM
47 | O=C(c1nnc(-c2ccccn2)o1)N1CCCc2[nH]cnc2C1c1cc2ccccn2n1 (stereo not shown) | > 5 µM
48 | CC(C)c1nnc(C(=O)N2CCc3[nH]cnc3C2c2cc3cccc(C(F)(F)F)n3n2)o1 (stereo not shown) | 1 to 5 µM
49 | FC(F)c1cccc2cc(C3c4nc[nH]c4CCN3c3nnc(C4CC4)o3)nn12 (stereo not shown) | 1 to 5 µM
50 | Fc1cccc2cc(C3c4nc[nH]c4CCN3c3nnc(C4CC4)o3)nn12 (stereo not shown) | 1 to 5 µM
51 | Cc1cccc2cc(C3c4nc[nH]c4CCN3c3nnc(C4CC4)o3)nn12 (stereo not shown) [listing 2 of 2 here] | 1 to 5 µM
52 | Cc1nnc(C(=O)N2CCc3[nH]cnc3C2c2cc3cc(C(F)(F)F)ccn3n2)o1 (stereo not shown) | 1 to 5 µM
53 | Cc1ccc2cc(C3c4nc[nH]c4CCN3C(=O)c3nnc(C)o3)nn2c1 (stereo not shown) | 1 to 5 µM
54 | Cc1nnc(N2CCc3[nH]cnc3C2c2cc3ccccn3n2)o1 (stereo not shown) | 1 to 5 µM

Row | SMILES | AC50
55 | Cc1c(C2c3nc[nH]c3CCN2C(=O)c2nnc(C(C)(C)C)o2)nn2ccccc12 (stereo not shown) | 1 to 5 µM
56 | CC(C)(C)c1nnc(C(=O)N2CCc3[nH]cnc3C2c2cc3cc(C(F)(F)F)ccn3n2)o1 (stereo not shown) | 1 to 5 µM
57 | O=C(c1cnn2cc(N3CCOCC3)ccc12)N1CCc2[nH]cnc2C1c1cc2ccccn2n1 (stereo not shown) [listing 2 of 2 here] | 1 to 5 µM
58 | Cc1cccc2cc(C3c4nc[nH]c4CCN3C(=O)c3cnn4ccccc34)nn12 (stereo not shown) | 1 to 5 µM
59 | O=C(c1nnc(N2CCC(F)CC2)o1)N1CCc2[nH]cnc2C1c1cc2ccccn2n1 (stereo not shown) | 1 to 5 µM
60 | Cc1c(C2c3nc[nH]c3CCN2C(=O)c2cnco2)nn2ccccc12 (stereo not shown) | 1 to 5 µM
61 | CN(C)C(=O)c1nnc(N2CCc3[nH]cnc3C2c2cc3c(F)cccn3n2)o1 (stereo not shown) | 1 to 5 µM
62 | O=C(c1cnco1)N1CCc2[nH]cnc2C1c1cc2cc(C(F)(F)F)ccn2n1 (stereo not shown) [listing 2 of 2 here] | 1 to 5 µM
63 | O=C(c1cnco1)N1CCc2[nH]cnc2C1c1cc2cc(F)ccn2n1 (stereo not shown) | 1 to 5 µM
64 | O=C(c1cnco1)N1CCc2[nH]cnc2C1c1cc2ccc(C(F)(F)F)cn2n1 (stereo not shown) | 1 to 5 µM
65 | O=C(c1cnco1)N1CCc2[nH]cnc2C1c1cc2cccc(C(F)(F)F)n2n1 (stereo not shown) [listing 2 of 2 here] | 1 to 5 µM
66 | O=C(c1cnco1)N1CCc2[nH]cnc2C1c1cc2cccc(Cl)n2n1 (stereo not shown) | 1 to 5 µM
67 | Cc1cccc2cc(C3c4nc[nH]c4CCN3C(=O)c3cnco3)nn12 (stereo not shown) [listing 2 of 2 here] | 1 to 5 µM
68 | COCc1ccc2c(C(=O)N3CCc4[nH]cnc4C3c3cc4cccc(C(F)(F)F)n4n3)cnn2c1 (stereo not shown) | 1 to 5 µM
69 | O=C(C1CC1(F)F)N1CCc2[nH]cnc2C1c1cc2ccccn2n1 (stereo not shown) | 1 to 5 µM
70 | O=C(c1cnn2ccccc12)N1CCc2[nH]cnc2C1c1cc2cccc(C(F)(F)F)n2n1 (stereo not shown) | 1 to 5 µM
71 | Cc1cccn2nc(C3c4nc[nH]c4CCN3c3nnc(C(=O)N(C)C)o3)cc12 (stereo not shown) | 1 to 5 µM
72 | CN(C)C(=O)c1nnc(N2CCc3[nH]cnc3C2c2cc3ccccn3n2)o1 (stereo not shown) | 1 to 5 µM
73 | Cc1nc(C(C)O)oc1C(=O)N1CCc2[nH]cnc2C1c1cc2cccc(C(F)(F)F)n2n1 (stereo not shown) | 1 to 5 µM
74 | Cc1nc(C(C)O)oc1C(=O)N1CCc2[nH]cnc2C1c1cc2cccc(C)n2n1 (stereo not shown) | 1 to 5 µM
75 | Cc1nc(C(C)O)oc1C(=O)N1CCc2[nH]cnc2C1c1cc2cccc(Cl)n2n1 (stereo not shown) [listing 2 of 2 here] | 1 to 5 µM
76 | CC(O)c1nnc(C(=O)N2CCc3[nH]cnc3C2c2cc3ccccn3n2)o1 (stereo not shown) | 1 to 5 µM
77 | CN(C)Cc1ccc2c(C(=O)N3CCc4[nH]cnc4C3c3cc4c(C(F)F)cccn4n3)cnn2c1 (stereo not shown) | 1 to 5 µM
78 | CN(C)Cc1ccc2c(C(=O)N3CCc4[nH]cnc4C3c3cc4c(F)cccn4n3)cnn2c1 (stereo not shown) | 1 to 5 µM
79 | CN(C)Cc1ccc2c(C(=O)N3CCc4[nH]cnc4C3c3cc4cccc(C(F)(F)F)n4n3)cnn2c1 (stereo not shown) | 1 to 5 µM
